The results in this text go back to US10934274B2, “Quinoline derivatives as TAM RTK inhibitors” (Qurient Co., Ltd., priority 2015, dated 2021).

The target in assay [1] is T1, Mer (Homo sapiens, UniProt Q12866).
T1 construct: purchased Life Technologies
T1 sequence (Q12866 21-999): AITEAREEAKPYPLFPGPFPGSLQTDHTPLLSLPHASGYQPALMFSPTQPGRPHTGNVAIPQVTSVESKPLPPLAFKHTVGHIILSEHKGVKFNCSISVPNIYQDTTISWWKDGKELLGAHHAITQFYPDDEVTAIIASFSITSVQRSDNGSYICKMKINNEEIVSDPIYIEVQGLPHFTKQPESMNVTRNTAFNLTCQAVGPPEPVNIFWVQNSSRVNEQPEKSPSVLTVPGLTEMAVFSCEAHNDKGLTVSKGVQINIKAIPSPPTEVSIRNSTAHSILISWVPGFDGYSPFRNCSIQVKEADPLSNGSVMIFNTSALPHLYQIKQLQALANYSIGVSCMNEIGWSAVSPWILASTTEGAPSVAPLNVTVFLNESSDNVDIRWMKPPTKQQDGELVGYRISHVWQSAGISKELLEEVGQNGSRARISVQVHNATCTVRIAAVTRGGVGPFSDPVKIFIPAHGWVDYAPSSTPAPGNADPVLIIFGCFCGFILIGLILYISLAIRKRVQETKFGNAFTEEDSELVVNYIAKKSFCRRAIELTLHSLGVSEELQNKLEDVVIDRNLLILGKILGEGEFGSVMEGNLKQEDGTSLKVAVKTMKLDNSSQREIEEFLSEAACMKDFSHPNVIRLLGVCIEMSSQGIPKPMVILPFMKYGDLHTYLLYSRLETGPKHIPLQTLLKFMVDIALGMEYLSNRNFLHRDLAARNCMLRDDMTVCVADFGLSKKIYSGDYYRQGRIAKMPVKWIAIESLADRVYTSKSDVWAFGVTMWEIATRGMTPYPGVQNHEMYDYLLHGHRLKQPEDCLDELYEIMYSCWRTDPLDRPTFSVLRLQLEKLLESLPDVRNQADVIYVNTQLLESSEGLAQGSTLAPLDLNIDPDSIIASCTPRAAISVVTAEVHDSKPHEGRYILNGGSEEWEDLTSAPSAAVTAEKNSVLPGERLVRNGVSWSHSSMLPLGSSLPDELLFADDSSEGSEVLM
The experiment in a line: LanthaScreen Eu kinase binding assay, Mer. As to conditions: Tracer 236.

In assay [2] the target is T2, Met (Homo sapiens, UniProt P08581).
T2 construct: purchased Life Technologies
Briefly: LanthaScreen Eu kinase binding assay, Met. As to conditions: Tracer 236, read-out: cMet kinase binding activity (Kd).

The test system of assay [3] is Axl phosphorylation in transiently transfected HEK293T cells. The experiment in a line: Cellular Axl phosphorylation assay. As to conditions: Homo sapiens, HEK-293T; HEK293T cells transfected with Axl, 1 hour compound treatment, Phospho-Axl vs Total-Axl. The class given is cell-based. In short, it runs like this:
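HEK293T cells transiently transfected with Axl (empty pcDNA_DEST_40 vector as minimum control) were treated with compound in DMSO for 1 h, then lysed. Total and phospho-Axl in lysates were measured by Mesoscale electrochemiluminescence immunoassay. IC50 was taken relative to the DMSO vehicle and empty-vector controls.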

Bounds are passed on as bounds.

T2 sequence (P08581 25-1390): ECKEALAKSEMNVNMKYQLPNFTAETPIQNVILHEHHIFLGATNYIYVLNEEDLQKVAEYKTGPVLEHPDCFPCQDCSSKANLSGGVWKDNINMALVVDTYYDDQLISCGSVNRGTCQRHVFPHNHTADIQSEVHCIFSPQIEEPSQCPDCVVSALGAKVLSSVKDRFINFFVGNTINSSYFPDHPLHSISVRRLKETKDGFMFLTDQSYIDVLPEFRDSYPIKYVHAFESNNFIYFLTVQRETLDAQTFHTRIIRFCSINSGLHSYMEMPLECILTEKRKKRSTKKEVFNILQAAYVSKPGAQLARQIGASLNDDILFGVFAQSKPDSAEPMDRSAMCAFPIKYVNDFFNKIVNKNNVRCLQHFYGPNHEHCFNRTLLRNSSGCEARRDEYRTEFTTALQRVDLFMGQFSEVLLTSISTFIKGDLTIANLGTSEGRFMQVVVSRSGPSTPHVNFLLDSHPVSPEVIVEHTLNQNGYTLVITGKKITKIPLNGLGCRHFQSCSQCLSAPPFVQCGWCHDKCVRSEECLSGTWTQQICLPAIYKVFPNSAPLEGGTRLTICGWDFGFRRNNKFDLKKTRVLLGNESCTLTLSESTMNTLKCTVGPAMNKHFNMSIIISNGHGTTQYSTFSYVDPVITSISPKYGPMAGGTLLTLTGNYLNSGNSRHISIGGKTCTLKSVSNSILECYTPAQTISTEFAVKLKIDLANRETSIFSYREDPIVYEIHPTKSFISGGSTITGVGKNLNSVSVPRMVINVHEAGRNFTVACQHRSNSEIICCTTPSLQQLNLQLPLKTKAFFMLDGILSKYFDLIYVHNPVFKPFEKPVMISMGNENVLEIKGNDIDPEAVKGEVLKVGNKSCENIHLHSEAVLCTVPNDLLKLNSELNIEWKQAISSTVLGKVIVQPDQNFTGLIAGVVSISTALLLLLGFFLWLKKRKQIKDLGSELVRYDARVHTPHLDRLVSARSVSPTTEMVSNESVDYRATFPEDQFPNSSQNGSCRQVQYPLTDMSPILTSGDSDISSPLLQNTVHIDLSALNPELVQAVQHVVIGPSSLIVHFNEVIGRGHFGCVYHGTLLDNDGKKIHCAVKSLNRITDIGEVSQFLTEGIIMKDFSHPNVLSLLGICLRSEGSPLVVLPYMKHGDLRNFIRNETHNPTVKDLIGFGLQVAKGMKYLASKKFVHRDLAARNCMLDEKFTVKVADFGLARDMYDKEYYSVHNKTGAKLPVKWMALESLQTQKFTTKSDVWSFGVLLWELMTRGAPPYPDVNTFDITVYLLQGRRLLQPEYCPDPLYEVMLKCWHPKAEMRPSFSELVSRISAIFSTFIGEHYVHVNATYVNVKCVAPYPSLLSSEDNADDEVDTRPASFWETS

In the case of `CCOc1cn(-c2ncco2)nc1C(=O)Nc1ccc(Oc2ccnc3cc(OC)c(OC)cc23)cn1` [Compound 59], the Kd in assay [1] and in assay [2] was < 100 nM each time. In assay [3], the IC50 was < 100 nM.

Regarding `CCOc1cn(-c2ccc(OC)cc2)nc1C(=O)Nc1ccc(Oc2ccnc3cc(OC)c(OC)cc23)cn1` [Compound 1], the Kd in assay [1] and in assay [2] was < 100 nM each time. In addition, in assay [3], the IC50 was < 100 nM.

For `CCC(C)Oc1cc2nccc(Oc3ccc(NC(=O)c4nn(-c5cccnc5)cc4OCC(F)(F)F)nc3)c2cc1OC` (stereo not drawn) [Compound 234], the Kd is < 100 nM in assay [1] and 100 to 1000 nM in assay [2]. For the same compound, the IC50 in assay [3] was < 100 nM.

Take `COc1cc2c(Oc3ccc(NC(=O)c4nn(-c5cnc(N)nc5)cc4OCC(F)(F)F)nc3)ccnc2cc1OC(C)C` [Compound 257]: the Kd in assay [1] and in assay [2] was < 100 nM in each case. In addition, the IC50 in assay [3] is < 100 nM.

Regarding `COc1cc2nccc(Oc3ccc(NC(=O)c4nn(-c5ccc(F)cc5F)cc4OCC(F)(F)F)nc3)c2cc1OC` [Compound 268], the Kd in assay [1] and in assay [2] was < 100 nM throughout. In assay [3], the IC50 is < 100 nM.

For the compound `COc1cc2nccc(Oc3ccc(NC(=O)c4nn(-c5cnccc5C(F)(F)F)cc4OCC4CC4)nc3)c2cc1OC` [Compound 247], the Kd in assay [1] and in assay [2] was < 100 nM in each case. In assay [3], the IC50 is < 100 nM.

For the compound `CCOc1cn(-c2nccnc2C(C)(O)CO)nc1C(=O)Nc1ccc(Oc2ccnc3cc(OC)c(OC)cc23)cc1F` (stereo not drawn) [Compound 229], the Kd in assay [1] and in assay [2] was < 100 nM throughout. Moreover, the half-maximal inhibitory concentration (IC50) in assay [3] is < 100 nM.

Turning to `CCOc1cnn(C)c1C(=O)Nc1ccc(Oc2ccnc3cc(OC)c(OC)cc23)cn1` [Compound 30], the Kd in assay [1] and in assay [2] was 100 to 1000 nM throughout. Besides, the 50% inhibitory concentration (IC50) in assay [3] was < 100 nM.

For `COc1cc2nccc(Oc3ccc(NC(=O)c4nn(-c5cccnc5)cc4OCC4CC4)nc3)c2cc1OC` [Compound 255], the equilibrium dissociation constant (Kd) in assay [1] and in assay [2] was < 100 nM each time. In addition, in assay [3], the IC50 was < 100 nM.

In the case of `CCOc1cn(C)nc1C(=O)Nc1ccc(Oc2ccnc3cc(OC)c(OC)cc23)cn1` [Compound 29], the dissociation constant Kd in assay [1] was < 100 nM; in assay [2], 100 to 1000 nM. The compound further yielded an IC50 in assay [3] of 100 to 1000 nM.

Consider `CCOc1cn(CCn2cccn2)nc1C(=O)Nc1ccc(Oc2ccnc3cc(OC)c(OC)cc23)cn1` [Compound 37], for which the Kd in assay [1] was < 100 nM; in assay [2], 100 to 1000 nM. In assay [3], the IC50 was 100 to 1000 nM.

In the case of `CCOc1cn(-c2cnccc2CCN(C)C)nc1C(=O)Nc1ccc(Oc2ccnc3cc(OC)c(OC)cc23)cn1` [Compound 65], the Kd in assay [1] and in assay [2] was < 100 nM each time. Besides, the IC50 in assay [3] is < 100 nM.

`CCOc1sc(-c2cccnc2)nc1C(=O)Nc1ccc(Oc2ccnc3cc(OC)c(OC)cc23)cn1` [Compound 45]: the equilibrium dissociation constant (Kd) in assay [1] and in assay [2] was < 100 nM each time. For the same compound, in assay [3], the concentration for half-maximal inhibition (IC50) was < 100 nM.

Take `COc1cc2nccc(Oc3ccc(NC(=O)c4nn(-c5ccc(F)c(C(C)=O)c5)cc4OCC4CC4)nc3)c2cc1OC` [Compound 274]: the Kd in assay [1] and in assay [2] was < 100 nM throughout. Moreover, the IC50 in assay [3] was < 100 nM.

`CCOc1cn(CC)nc1C(=O)Nc1ccc(Oc2ccnc3cc(OC)c(OC)cc23)cn1` [Compound 27]: the Kd in assay [1] is < 100 nM; in assay [2] it was 100 to 1000 nM. In addition, in assay [3], the IC50 is < 100 nM.

On to `CCOc1cn(-c2cnccc2C(C)(O)CO)nc1C(=O)Nc1ccc(Oc2ccnc3cc(OC)c(OC)cc23)cc1F` (stereo not drawn) [Compound 227], for which the Kd in assay [1] and in assay [2] was < 100 nM throughout. In assay [3], the IC50 is < 100 nM.

Turning to `CCOc1cn(Cc2cnccn2)nc1C(=O)Nc1ccc(Oc2ccnc3cc(OC)c(OC)cc23)cc1F` [Compound 215], the Kd in assay [1] and in assay [2] was < 100 nM throughout. For the same compound, in assay [3], the IC50 was < 100 nM.

`CCOc1cn(-c2ccc(N(C)C)cc2Cl)nc1C(=O)Nc1ccc(Oc2ccnc3cc(OC)c(OC)cc23)cn1` [Compound 31]: the Kd in assay [1] was < 100 nM; in assay [2], 100 to 1000 nM. Also, the IC50 in assay [3] was < 100 nM.

As to `CCOc1cn(CC(C)=O)nc1C(=O)Nc1ccc(Oc2ccnc3cc(OC)c(OC)cc23)cn1` [Compound 66], the Kd in assay [1] was < 100 nM; in assay [2] it was 100 to 1000 nM. Moreover, the IC50 in assay [3] is < 100 nM.

`COc1cc2nccc(Oc3ccc(NC(=O)c4nn(-c5cnc(N)nc5)cc4OCC4CCC4)nc3)c2cc1OC` [Compound 262]: the Kd in assay [1] and in assay [2] was < 100 nM throughout. In addition, the half-inhibitory concentration (IC50) in assay [3] is < 100 nM.

Take `CCOc1cnn(-c2ccco2)c1C(=O)Nc1ccc(Oc2ccnc3cc(OC)c(OC)cc23)cn1` [Compound 58]: the Kd in assay [1] and in assay [2] was 100 to 1000 nM in each case. For the same compound, the IC50 in assay [3] is < 100 nM.

On to `COc1cc2nccc(Oc3ccc(NC(=O)c4nn(-c5cnc(N)cn5)cc4OCC(F)(F)F)c(F)c3)c2cc1OC` [Compound 252], for which the dissociation constant (Kd) in assay [1] is < 100 nM; in assay [2], ≥ 1000 nM. Besides, in assay [3], the IC50 was < 100 nM.

As to `CCOc1cn(CCOC)nc1C(=O)Nc1ccc(Oc2ccnc3cc(OC)c(OC)cc23)cn1` [Compound 64], the Kd in assay [1] and in assay [2] was < 100 nM throughout. The IC50 in assay [3] is < 100 nM.

For `CCOc1cnn(C2CCCN(C)C2)c1C(=O)Nc1ccc(Oc2ccnc3cc(OC)c(OC)cc23)cc1F` (stereo not drawn) [Compound 213], the results for the Kd in assay [1] and in assay [2] were 100 to 1000 nM and ≥ 1000 nM, respectively. In assay [3], this compound registered an IC50 of 100 to 1000 nM.

For the compound `CCOc1cn(-c2cnc(N)nc2)nc1C(=O)Nc1ccc(Oc2ccnc3cc(OC(C)C)c(OC)cc23)cc1F` [Compound 230], the Kd in assay [1] was < 100 nM; in assay [2], ≥ 1000 nM. Moreover, in assay [3], the IC50 was < 100 nM.

With `CCOc1oc(-c2cccnc2)nc1C(=O)Nc1ccc(Oc2ccnc3cc(OC)c(OC)cc23)cn1` [Compound 44], the Kd in assay [1] and in assay [2] was < 100 nM each time. In assay [3], the IC50 was < 100 nM.

Consider `CCOc1cn(-c2ccsc2)nc1C(=O)Nc1ccc(Oc2ccnc3cc(OC)c(OC)cc23)cn1` [Compound 18], for which the dissociation constant (Kd) is < 100 nM in assay [1] and 100 to 1000 nM in assay [2]. In addition, the IC50 in assay [3] is < 100 nM.

Regarding `CCOc1cn(C2CCN(C)C2)nc1C(=O)Nc1ccc(Oc2ccnc3cc(OC)c(OC)cc23)cc1F` (stereo not drawn) [Compound 212], the Kd in assay [1] and in assay [2] was 100 to 1000 nM throughout. Further, the IC50 in assay [3] was < 100 nM.

`CCOc1cn(-c2cnsc2)nc1C(=O)Nc1ccc(Oc2ccnc3cc(OC)c(OC)cc23)cn1` [Compound 39]: the Kd in assay [1] and in assay [2] was < 100 nM each time. Further, the IC50 in assay [3] was < 100 nM.

Take `COc1cc2nccc(Oc3ccc(NC(=O)c4nn(-c5ccc(F)cc5Cl)cc4OCC4CC4)nc3)c2cc1OC` [Compound 263]: the Kd in assay [1] and in assay [2] was < 100 nM each time. In addition, the IC50 in assay [3] was < 100 nM.

For `CCOc1cn(-c2cccnc2C)nc1C(=O)Nc1ccc(Oc2ccnc3cc(OC)c(OC)cc23)cn1` [Compound 23], the dissociation constant (Kd) in assay [1] and in assay [2] was < 100 nM in each case. Moreover, the IC50 in assay [3] was < 100 nM.

Take `CCOc1cn(-c2cnc(N)nc2)nc1C(=O)Nc1ccc(Oc2ccnc3cc(OC)c(OC(F)(F)F)cc23)cn1` [Compound 241]: the dissociation constant (Kd) in assay [1] was < 100 nM; in assay [2], ≥ 1000 nM. The IC50 in assay [3] was < 100 nM.

For the compound `CCOc1cn(-c2ccc(C#N)cn2)nc1C(=O)Nc1ccc(Oc2ccnc3cc(OC)c(OC)cc23)cn1` [Compound 43], the Kd in assay [1] and in assay [2] was ≥ 1000 nM throughout. In assay [3], the IC50 is ≥ 1000 nM.

On to `COc1cc2nccc(Oc3ccc(NC(=O)c4nn(-c5ccc(F)cc5C)cc4OCC4CC4)nc3)c2cc1OC` [Compound 258], for which the Kd in assay [1] and in assay [2] was < 100 nM in each case. In addition, in assay [3], the IC50 is < 100 nM.

As to `CCOc1cn(-c2ccnnc2)nc1C(=O)Nc1ccc(Oc2ccnc3cc(OC)c(OC)cc23)cn1` [Compound 40], the Kd in assay [1] and in assay [2] was < 100 nM each time. For the same compound, the IC50 in assay [3] lay within 100 to 1000 nM.

Turning to `COc1cc2nccc(Oc3ccc(NC(=O)c4nn(-c5cnc(N)nc5)cc4OCC4CC4)nc3)c2cc1OC` [Compound 240], the dissociation constant Kd in assay [1] and in assay [2] was < 100 nM in each case. Moreover, the IC50 in assay [3] is < 100 nM.

For orientation: Kd means a measure of binding affinity in units of concentration. In general, IC50 refers to the point on the concentration scale where inhibition reaches its midpoint.
